Results reported in patent publication US10729636B2, “Compositions comprising peptide [sequence]” (NURITAS LIMITED, priority 2016, dated 2020).

Key:
[1] = system: mTOR phosphorylated at Ser2448; experiment: Muscle protein synthesis (Phospho-mTOR assay); format: cell-based; conditions: HSkMC cells, 2 hours, FIG. 9
Protocol: Phospho-mTOR sandwich ELISA detects endogenous levels of phosphorylated mTOR at Ser2448.
Day 1: Seed HSkMC cells in 500 uL/well of HSkMC Growth Medium and let them adhere to the wells for 16-24 h.
Day 2: Remove growth medium and add 500 uL/well of HSkMC Differentiation Medium to let them differentiate for 5-7 days.
Day 7: Treat cells for 2 hours. Collect cell lysates in lysis buffer.
Day 8: Perform BCA (protein determination) and run the assay. In a first incubation step, a mTOR antibody coated onto the ELISA microwells is used to capture mTOR (phospho and non-phospho) from the cell lysates. Then, following extensive washing, a specific phospho-mTOR detection antibody is added to detect only the phospho-mTOR protein captured before. Finally, a HRP-linked antibody is used to recognise the detection antibody and through the addition of TMB (HRP substrate) develop color proportionally to the quantity of mTOR phosphorylated at Ser2448.

[2] = system: HACAT cells; experiment: Cell proliferation assay (BrDu), HACAT; format: cell-based; conditions: compared with untreated control, FIG. 2
Protocol: BrDu is incorporated into newly synthesised DNA strands of actively proliferating cells. Following partial denaturation of double stranded DNA, BrDu is detected immunochemically allowing the assessment of the population of cells which are synthesizing DNA.
Following the initial 24 h incubation the cells were incubated with 5 μg/ml, 0.5 μg/ml or 0.05 μg/ml synthetic peptide for 24 h respectively.
After 18 h incubation with synthetic peptides 20 μl BrDu reagent was added to each well. At 24 h incubation the cells were fixed and the amount of […] was measured using the BrdU Cell Proliferation Assay, all steps were carried out according to the manufacturer's instructions.
This experiment was then repeated using HACAT cells.

[3] = system: AMPK pathway; experiment: Phospho-AMPK alpha / Phospho-ACC / Phospho-Akt1 ELISA (mechanism of action); format: cell-based; conditions: phospho-ELISAs on cell lysates; FIGS. 12-14
Protocol: This set of experiments was undertaken to understand the mechanism of action of a peptide of SEQ ID NO. 1.
Phospho-Acetyl-CoA Carboxylase (Ser79) Sandwich ELISA Kit is a solid phase sandwich enzyme-linked immunosorbent assay (ELISA) that detects endogenous levels of acetyl-CoA carboxylase (ACC) when phosphorylated at Ser79. A phospho-ACC (Ser79) rabbit antibody was coated onto the microwells. After incubation with cell lysates, phospho-ACC protein was captured by the coated antibody. Following extensive washing, an ACC mouse detection mAb was added to detect the captured ACC protein. Anti-mouse IgG, HRP-linked antibody was then used to recognize the bound detection antibody. […] The magnitude of the absorbance for the developed color was proportional to the quantity of ACC phosphorylated at Ser79.
Phospho-Akt1 (Ser473) Sandwich ELISA Kit is a solid phase sandwich enzyme-linked immunosorbent assay (ELISA) that detects endogenous levels of phospho-Akt1 (Ser473) protein. […] The magnitude of absorbance for this developed colour is proportional to the quantity of phospho-Akt1 (Ser473) protein.
Phospho-AMPKα (Thr172) Sandwich ELISA Kit is a solid phase sandwich enzyme-linked immunosorbent assay (ELISA) that detects endogenous levels of AMPKα when phosphorylated at Thr172. […] The magnitude of the absorbance for this developed colour was proportional to the quantity of AMPKα phosphorylated at Thr172. […]

[4] = system: GLUT-4; experiment: GLUT-4 translocation (membrane fraction ELISA); format: cell-based, Human; conditions: HSKMC cells, 2 hrs, FIG. 8
Protocol: […] Upon completion of treatment, cell membrane proteins were collected. Briefly, cells were harvested from the wells with a cell scraper and centrifuged at 300×g for 5 min. The cell pellet was washed with 300 ul of cell wash solution and then re centrifuged at 300×g for 5 min. The supernatant was discarded and the cells resuspended in 1.5 ml of cell wash solution and transferred to a 2 ml centrifuge tube. The cells were then centrifuged at 300×g for 5 min and the supernatant discarded. 150 ul of permeabilization buffer was added to the cell pellet and vortexed briefly to obtain a homogenous cell suspension. The suspension was then incubated at 4° C. for 10 min with constant mixing. […] The supernatant containing solubilized membrane and membrane associated proteins fractions was transferred to a new tube and stored at −80° C. until ready for assessment.
GLUT-4 was assessed in the cell membrane fractions using a sandwich ELISA from LSBio. […] 50 ul of stop solution was added to each well and the optical density of the sample was determined using a microplate reader set to 450 nm. GLUT-4 concentration in the samples was calculated off the standard curve after generating a four-parameter logistic (4-PL) curve fit. Sample concentration read of the curve was then adjusted by multiplying the results by the dilution factor.

WKDEAGKPLVK [SEQ ID NO. 1]
working through the AMPK pathway: mechanism of action (pathway) [3]
increase: mTOR ([1]; 0.5 μg/ml) | mTOR ([1]; 5 μg/ml) | cell proliferation [2] | GLUT4 translocation ([4]; 0.05 ug/ml) | GLUT4 translocation ([4]; 5 ug/ml)
